What all share (assay type): cell-based
Test [1] concerns P. aeruginosa ATCC 27853. Put plainly: Intracellular accumulation of acridine orange. The settings on record: P. aeruginosa ATCC 27853, dendrimers at MIC. Here is the method:
(§1) The assay was performed as previously described by Armengol et al. including control and clinical strains (E. coli 208691 and P. aeruginosa 666 SJD) previously studied by our group. Briefly, 96-well flat-bottomed microtiter plates (Guangzhou Jet Bio-Filtration Co., Ltd., Mianyang, China) were used. Overnight cultures were diluted in 1/4 Ringer’s solution to an OD520nm of 1.5, and 100 µL was added to the wells previously filled with 100 µL of Ringer’s solution. Acridine Orange (AO) was added to a final concentration of 0.25 µg/mL. The inoculated plates were then incubated for 30 min with shaking, after which the fluorescence was measured in a FLUOstar OPTIMA fluorescence microplate reader (BMG Labtech, Ortenberg, Germany).
(§2) To determine the uptake and accumulation of AO by bacteria, different scenarios were compared. First, bacteria were examined in the presence of PAβN at 20 µg/mL, and then in the presence of different concentrations of the dendrimers at (MIC, ½ MIC, ¼ MIC). The results in each condition were expressed as the percentage increase in fluorescence with respect to the control.

In a further test the test system is E. coli 208691. Put plainly: Intracellular accumulation of acridine orange. As to conditions: E. coli 208691, dendrimers at MIC, ½ MIC, ¼ MIC, AO 0.25 µg/mL, 30 min. Here is the method:
as §1, §2

The subject of test [2] is P. aeruginosa ATCC 27853. The settings on record: broth microdilution, MHBCA, 24 h, 37 °C, visual turbidity. The protocol:
(§3) The antimicrobial activity of the dendrimers was evaluated against E. coli ATCC 25922, P. aeruginosa ATCC 27853 and S. aureus ATCC 29213 strains. The MIC values were determined by the broth microdilution method. Briefly, the different strains were grown in Muller Hinton broth cation adjusted (MHBCA) medium overnight at 37 °C with shaking at 200 rpm. The bacterial cultures were then adjusted to OD625nm of 0.08–0.1, and 5 μL of each diluted suspension was added to 96-well plates previously filled with MHBCA and serially diluted peptides. Plates were incubated for 24 h at 37 °C. Finally, the MIC was determined macroscopically, based on the visual turbidity of the wells.

Another test has as its system S. aureus ATCC 29213. The settings on record: ATCC 29213, 24 h. The protocol:
as §3

A further test concerns E. coli ATCC 25922. As to conditions: broth microdilution, MHBCA, 24 h, 37 °C, visual turbidity. Here is the method: as §3
Test [3] concerns MDR E. coli. Put plainly: Checkerboard assay. The settings on record: for interaction with ciprofloxacin: MDR E. coli; for interaction with rifampicin: strain not stated at this place, b42: results for rifampin quite similar to ciprofloxacin. The protocol: (§4) A checkerboard assay was used to determine the fractional inhibitory concentrations (FICs) of dendrimers in combination with conventional antibiotics. Briefly, each well in a 96-well plate was inoculated with 100 µL of a bacterial inoculum of 1 × 10^6 CFU/mL, and the plates were incubated at 37 °C for 24 h. The FIC was calculated after identifying the first well in each row without growth (MIC), according to the following formula: FIC of drug A (FIC A) = (MIC of drug A in combination)/(MIC of A); FIC of drug B (FIC B) = (MIC of drug B in combination)/(MIC of B). The FIC index (FICI) values were calculated by adding the FIC of drug A to the FIC of drug B [46]. The interpretation of the (FICI) was the following: FICI ≤ 0.5, synergy; 0.5 < FICI ≤ 1, additivity; 1 < FICI ≤ 2 […].

The test system of test [4] is P. aeruginosa susceptible and resistant strains. Put plainly: Checkerboard assay. As to conditions: both susceptible and resistant strains. Here is the method: as §4
The subject of test [5] is E. coli susceptible strains. The test can be described thus: Checkerboard assay. Here is the method:
as §4

Test [6] relates to P. aeruginosa ATCC 27853. Put plainly: Bacterial growth curves. As to conditions: P. aeruginosa ATCC 27853, TSB, MIC, ½ MIC and ¼ MIC, 24 h, 37 °C, OD 850 nm. Here is the method:
The real-time effect of the peptide dendrimers was examined on the growth curves of E. coli ATCC 25922 and P. aeruginosa ATCC 27853. Volumes of 10 mL of TSB liquid cultures containing 1–5 × 10^5 CFU/mL in the logarithmic phase were adjusted in Falcon tubes. Peptide dendrimers were then added at MIC and sub-inhibitory concentrations (½ MIC and ¼ MIC). Incubation was performed in RTS-1C real-time reverse spin bioreactors RTS-1 (Biosan) for 24 h at 37 °C and 2000 rpm. Growth was measured noninvasively as optical density (OD 850 nm) every 15 min.

In test [7] the test system is MDR E. coli. As to conditions: 24 h. The protocol:
(§5) E. coli ATCC 25922, P. aeruginosa ATCC 27853, S. aureus ATCC 29213, P. aeruginosa 666 SJD (ciprofloxacin-resistant), P. aeruginosa P12, P13, P15, P16 and P17 (MDR isolates) and E. coli 7987, 5545, 8248, 13974, 7259 and 208691 (MDR isolates) from our own collection were included in the present study.
as §3

In a further test the test system is MDR P. aeruginosa. As to conditions: 24 h. Here is the method: as §5, §3
The subject of test [8] is P. aeruginosa ATCC 27853. The test can be described thus: Time-kill curves. The settings on record: P. aeruginosa ATCC 27853, ½ MIC. Here is the method: The death kinetics of the active dendrimers were examined by plotting their time-kill curves against E. coli ATCC 25922 and P. aeruginosa ATCC 27853. The dendrimers were added to a starting bacterial inoculum of 10^6 CFU/mL in 5 mL of MHBCA medium. Dendrimers were tested at three different concentrations: MIC, ½ MIC and ¼ MIC. They were incubated for 24 h at 37 °C with shaking at 200 rpm. Samples were aseptically collected at 0, 1, 2, 4 and 6 h, serially diluted in Ringer ¼ and plated on Tryptone soy agar for colony counting.
The response of the microbial strains to the dendrimers was determined based on a logarithmic decrease in viable bacteria. A compound was considered active if it caused a reduction of ≥1 log10 CFU/mL, compared to the corresponding counts at time 0 h. In addition, a dendrimer was considered bactericidal if it caused a reduction of ≥3 log10 CFU/mL [40].

Values after ≈ are worked out from the molar mass of the structure shown. Starred links: 1 amine or outer side, 2 acyl side, 3 side chain; linkers in the order of their positions; H or OH if unused. Positions of bridges follow the written chain, without caps; N, C: chain ends. Residues, ends and D or L forms follow the SMILES beside them. Chains are numbered I, II in the order given. X1 = O=C(c1ccc(Oc2nc(NCCN[*:2])nc(NCCN[*:3])n2)cc1)[*:1]

Take `CC(C)C[C@H](NC(=O)c1ccc(Oc2nc(NCCNC(=O)[C@H](CCCCN)NC(=O)[C@H](CC(C)C)NC(=O)[C@H](CCCCN)NC(=O)[C@H](CC(C)C)NC(=O)[C@H](CCCCN)NC(=O)[C@@H](N)CC(C)C)nc(NCCNC(=O)[C@H](CCCCN)NC(=O)[C@H](CC(C)C)NC(=O)[C@H](CCCCN)NC(=O)[C@H](CC(C)C)NC(=O)[C@H](CCCCN)NC(=O)[C@@H](N)CC(C)C)n2)cc1)C(=O)N[C@@H](CCCCN)C(=O)N[C@@H](CC(C)C)C(=O)N[C@@H](CCCCN)C(=O)N[C@@H](CC(C)C)C(=O)N[C@@H](CCCCN)C(N)=O` [Dendrimer 1, H-[(LK)3]2-(EDA)2-TA-PHBA-(LK)3-NH2] (I: LKLKLK-NH2 / II: H-LKLKLK / III: H-LKLKLK; linker I:N-II:C-III:C via X1): the “AO accumulation (in words)” value with P. aeruginosa ATCC 27853 [1] is recorded as “slight increase in AO accumulation”; in the test with E. coli 208691 it was “marked increase in AO accumulation”. For the same molecule, the “MIC P. aeruginosa ATCC 27853” value with P. aeruginosa ATCC 27853 [2] is 16 µg/mL (≈ 6.39 µM). The “MIC S. aureus ATCC 29213” value with S. aureus ATCC 29213 was over 64 µg/mL. Further, the “MIC E. coli ATCC 25922” value against E. coli ATCC 25922 was found to be 8 µg/mL (≈ 3.19 µM). Also, the interaction with ciprofloxacin result in the test with MDR E. coli [3] is on record as “synergistic”; in test [4], “additive effect”; in [5], “additive effect”. For the same molecule, the interaction with rifampicin result with MDR E. coli [3] was “synergic”. Also, the “effect on growth curve (in words)” value in the test on P. aeruginosa ATCC 27853 [6] is recorded as “noticeable growth delay”.

Turning to `CC(C)C[C@H](NC(=O)[C@H](CCCCN)NC(=O)[C@H](CC(C)C)NC(=O)[C@H](CCCCN)NC(=O)[C@H](CC(C)C)Nc1nc(NCCNC(=O)[C@H](CCCCN)NC(=O)[C@H](CC(C)C)NC(=O)[C@H](CCCCN)NC(=O)[C@H](CC(C)C)NC(=O)[C@H](CCCCN)NC(=O)[C@@H](N)CC(C)C)nc(NCCNC(=O)[C@H](CCCCN)NC(=O)[C@H](CC(C)C)NC(=O)[C@H](CCCCN)NC(=O)[C@H](CC(C)C)NC(=O)[C@H](CCCCN)NC(=O)[C@@H](N)CC(C)C)n1)C(=O)N[C@@H](CCCCN)C(N)=O` [Dendrimer 2, H-[(LK)3-EDA]2-TA-(LK)3-NH2], the “MIC P. aeruginosa ATCC 27853” value against P. aeruginosa ATCC 27853 [2] was found to be 16 µg/mL (≈ 6.71 µM). In addition, in the test on S. aureus ATCC 29213, the “MIC S. aureus ATCC 29213” value is over 64 µg/mL. Moreover, the “MIC E. coli ATCC 25922” value with E. coli ATCC 25922 worked out at 2 µg/mL (≈ 0.839 µM). In the test with MDR E. coli [7], the “MIC values in MDR E. coli (span over isolates)” value fell in the range of 2 to 8 µg/mL. In addition, the “MIC values in MDR P. aeruginosa (span over isolates)” value in the test with MDR P. aeruginosa was in the range of 16 to 32 µg/mL. Also, the “time-kill activity at ½ MIC (in words)” value in the test with P. aeruginosa ATCC 27853 [8] was “higher antimicrobial activity than dendrimer 1”. Moreover, the figures for the interaction with ciprofloxacin entry (in the test with MDR E. coli [3]; in test [4]; in [5]) were “synergistic”, “additive effect” and “additive effect”, respectively. The interaction with rifampicin entry in the test with MDR E. coli [3] is given as “synergic”. Moreover, the “effect on growth curve (in words)” value with P. aeruginosa ATCC 27853 [6] is given as “complete growth inhibition occurred at the MIC”.

These data come from paper PMC11172478, “1,3,5-Triazine as Branching Connector for the Construction of Novel Antimicrobial Peptide Dendrimers: Synthesis and Biological Characterization” (International Journal of Molecular Sciences, 2024).
